Reference: patent publication US20070249639A1, “Use of 9H-Purine-2,6-Diamine Derivatives in the Treatment of Proliferative Diseases and Novel 9H-Purine-2,6-Diamine Derivatives” (priority 2004, published 2007)
pIC50: −log10 of the molar value.

Experiments:
Assay type in all cases: biochemical
ABL = ABL (Homo sapiens, UniProt P00519); experiment: Kinase panel inhibition; details: @ 10 μM inhibitor; read-out: ABL kinase inh.
Protocol: (§1) Percentage Inhibition of the Kinase at 10 μM Concentration of the Inhibitor
(§2) Paul W. Manley, Pascal Furet, Guido Bold, Josef Brüggen, Jürgen Mestan, Thomas Meyer, Christian R. Schnell, and Jeanette Wood; Anthranilic Acid Amides: A Novel Class of Antiangiogenic VEGF Receptor Kinase Inhibitors J. Med. Chem. 2002, 45, 5687-5693. Wan, Yongqin; Hur, Wooyoung; Cho, Charles Y.; Liu, Yi; Adrian, Francisco J.; Lozach, Olivier; Bach, Stephane; Mayer, Thomas; Fabbro, Doriano; Meijer, Laurent; Gray, Nathanael S; Synthesis and Target Identification of Hymenialdisine Analogs Chemistry & Biology 2004, 11(2), 247-259.

FGFR = experiment: Kinase panel inhibition; details: @ 10 μM inhibitor
Protocol: as §1, §2

Flt-1 = Flt-1 (Homo sapiens, UniProt P17948); experiment: Kinase panel inhibition; details: @ 10 μM inhibitor; read-out: Flt-1 kinase inh.
Protocol: as §1, §2

Flt-4 = Flt-4 (Homo sapiens, UniProt P35916); experiment: Kinase panel inhibition; details: @ 10 μM inhibitor; read-out: Flt-4 kinase inh.
Protocol: as §1, §2

HER1 = HER1 (Homo sapiens, UniProt P00533); experiment: Kinase panel inhibition; details: @ 10 μM inhibitor; read-out: HER1 kinase inh.
Protocol: as §1, §2

HER2 = HER2 (Homo sapiens, UniProt P04626); experiment: Kinase panel inhibition; details: @ 10 μM inhibitor; read-out: HER2 kinase inh.
Protocol: as §1, §2

IGF = IGF (Homo sapiens, UniProt P08069); experiment: Kinase panel inhibition; details: @ 10 μM inhibitor; read-out: IGF kinase inh.
Protocol: as §1, §2

KDR = KDR (Homo sapiens, UniProt P35968); experiment: Kinase panel inhibition; details: @ 10 μM inhibitor; read-out: KDR kinase inh.
Protocol: as §1, §2

KIT = KIT (Homo sapiens, UniProt P10721); experiment: Kinase panel inhibition; details: @ 10 μM inhibitor; read-out: KIT kinase inh.
Protocol: as §1, §2

MET = MET (Homo sapiens, UniProt P08581); experiment: Kinase panel inhibition; details: @ 10 μM inhibitor; read-out: MET kinase inh.
Protocol: as §1, §2

PDK1 = biological target: T1, PDK1 (Homo sapiens, UniProt O15530); experiment: Kinase panel inhibition; details: @ 10 μM inhibitor; read-out: PDK1 kinase inh.
T1 sequence (O15530 1-556): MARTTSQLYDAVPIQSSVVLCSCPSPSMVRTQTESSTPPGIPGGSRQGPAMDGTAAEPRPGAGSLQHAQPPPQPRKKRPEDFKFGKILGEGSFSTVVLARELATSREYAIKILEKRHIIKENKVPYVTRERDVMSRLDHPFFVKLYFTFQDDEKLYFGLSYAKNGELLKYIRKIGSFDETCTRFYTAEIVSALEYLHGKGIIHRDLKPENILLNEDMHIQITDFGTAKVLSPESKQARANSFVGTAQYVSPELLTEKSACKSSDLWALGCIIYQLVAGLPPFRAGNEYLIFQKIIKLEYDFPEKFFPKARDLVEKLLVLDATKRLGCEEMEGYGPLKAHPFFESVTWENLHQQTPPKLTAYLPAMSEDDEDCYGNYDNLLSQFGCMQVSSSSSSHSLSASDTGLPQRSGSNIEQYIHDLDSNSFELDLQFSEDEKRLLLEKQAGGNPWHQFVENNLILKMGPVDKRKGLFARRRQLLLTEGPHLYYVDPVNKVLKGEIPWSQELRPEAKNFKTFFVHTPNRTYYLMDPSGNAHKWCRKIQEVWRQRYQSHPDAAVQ
Protocol: as §1, §2

PKB = PKB (Homo sapiens, UniProt P31749); experiment: Kinase panel inhibition; details: @ 10 μM inhibitor; read-out: PKB kinase inh.
Protocol: as §1, §2

Raf-1 = Raf-1 (Homo sapiens, UniProt P04049); experiment: Kinase panel inhibition; details: @ 10 μM inhibitor; read-out: Raf-1 kinase inh.
Protocol: as §1, §2

Tek = Tek (Homo sapiens, UniProt Q02763); experiment: Kinase panel inhibition; details: @ 10 μM inhibitor; read-out: Tek kinase inh.
Protocol: as §1, §2

human topoisomerase II α = biological target: T2, human topoisomerase II α (Homo sapiens, UniProt P11388); experiment: Topoisomerase II ATPase assay (Malachite Green); details: for inhibition at 10 µM: Percent inhibition @10 μM, Malachite Green assay, read-out: TOPO II inh. (inhibition of the TOPO ATPase activity)
T2 construct: purchased Professor Neil Osheroff (Vanderbilt University, Nashville, Tenn., USA)
Method in brief: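 Purified human topo IIα was pre-incubated with pUC18 DNA for 10 min at 37 °C in pH 7.9 Tris buffer with 175 mM KCl and 5 mM MgCl2. ATP was then added and the reaction ran for 30 min at 37 °C. Released phosphate was read by malachite green at 630 nm; % inhibition at 10 μM and IC50 came from concentration-inhibition curves.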

PKA = experiment: Kinase panel inhibition; details: @ 10 μM inhibitor
Protocol: as §1, §2

Chain of MET (P08581 25-1390): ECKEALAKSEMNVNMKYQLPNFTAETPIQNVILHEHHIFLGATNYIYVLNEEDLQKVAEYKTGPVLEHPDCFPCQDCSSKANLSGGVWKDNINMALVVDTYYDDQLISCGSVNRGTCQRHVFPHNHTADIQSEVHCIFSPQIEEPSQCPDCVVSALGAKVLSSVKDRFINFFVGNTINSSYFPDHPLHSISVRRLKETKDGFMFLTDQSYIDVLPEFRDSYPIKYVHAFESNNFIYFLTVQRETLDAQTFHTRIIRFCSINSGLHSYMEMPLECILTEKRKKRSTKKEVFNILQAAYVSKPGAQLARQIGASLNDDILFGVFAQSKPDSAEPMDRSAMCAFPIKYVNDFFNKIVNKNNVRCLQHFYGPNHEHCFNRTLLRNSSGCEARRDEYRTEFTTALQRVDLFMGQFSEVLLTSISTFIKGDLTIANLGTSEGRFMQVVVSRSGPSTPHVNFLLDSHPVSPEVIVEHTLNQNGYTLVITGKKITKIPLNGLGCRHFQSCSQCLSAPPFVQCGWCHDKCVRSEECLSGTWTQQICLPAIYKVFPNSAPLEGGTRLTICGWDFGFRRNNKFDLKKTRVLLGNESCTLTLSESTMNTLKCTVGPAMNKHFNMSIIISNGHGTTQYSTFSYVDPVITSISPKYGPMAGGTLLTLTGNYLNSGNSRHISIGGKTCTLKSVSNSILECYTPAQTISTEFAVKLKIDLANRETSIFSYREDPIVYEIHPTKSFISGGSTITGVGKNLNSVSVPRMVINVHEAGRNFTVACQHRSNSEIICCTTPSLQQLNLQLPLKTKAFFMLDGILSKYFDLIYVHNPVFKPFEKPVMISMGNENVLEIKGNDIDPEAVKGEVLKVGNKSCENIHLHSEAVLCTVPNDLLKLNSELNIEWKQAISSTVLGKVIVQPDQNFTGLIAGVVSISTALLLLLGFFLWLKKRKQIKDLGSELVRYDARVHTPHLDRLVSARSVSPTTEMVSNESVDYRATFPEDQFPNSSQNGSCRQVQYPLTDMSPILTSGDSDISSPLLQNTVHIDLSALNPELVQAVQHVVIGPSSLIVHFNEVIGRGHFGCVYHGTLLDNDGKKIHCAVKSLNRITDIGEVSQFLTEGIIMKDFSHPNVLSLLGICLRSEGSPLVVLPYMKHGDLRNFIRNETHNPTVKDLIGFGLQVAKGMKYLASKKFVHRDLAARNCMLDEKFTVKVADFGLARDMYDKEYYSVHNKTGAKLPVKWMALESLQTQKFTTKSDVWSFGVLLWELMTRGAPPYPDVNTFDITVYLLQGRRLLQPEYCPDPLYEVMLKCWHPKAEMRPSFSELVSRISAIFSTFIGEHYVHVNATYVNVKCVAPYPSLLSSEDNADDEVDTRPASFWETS
Chain of Flt-4 (P35916 25-1363, species assumed): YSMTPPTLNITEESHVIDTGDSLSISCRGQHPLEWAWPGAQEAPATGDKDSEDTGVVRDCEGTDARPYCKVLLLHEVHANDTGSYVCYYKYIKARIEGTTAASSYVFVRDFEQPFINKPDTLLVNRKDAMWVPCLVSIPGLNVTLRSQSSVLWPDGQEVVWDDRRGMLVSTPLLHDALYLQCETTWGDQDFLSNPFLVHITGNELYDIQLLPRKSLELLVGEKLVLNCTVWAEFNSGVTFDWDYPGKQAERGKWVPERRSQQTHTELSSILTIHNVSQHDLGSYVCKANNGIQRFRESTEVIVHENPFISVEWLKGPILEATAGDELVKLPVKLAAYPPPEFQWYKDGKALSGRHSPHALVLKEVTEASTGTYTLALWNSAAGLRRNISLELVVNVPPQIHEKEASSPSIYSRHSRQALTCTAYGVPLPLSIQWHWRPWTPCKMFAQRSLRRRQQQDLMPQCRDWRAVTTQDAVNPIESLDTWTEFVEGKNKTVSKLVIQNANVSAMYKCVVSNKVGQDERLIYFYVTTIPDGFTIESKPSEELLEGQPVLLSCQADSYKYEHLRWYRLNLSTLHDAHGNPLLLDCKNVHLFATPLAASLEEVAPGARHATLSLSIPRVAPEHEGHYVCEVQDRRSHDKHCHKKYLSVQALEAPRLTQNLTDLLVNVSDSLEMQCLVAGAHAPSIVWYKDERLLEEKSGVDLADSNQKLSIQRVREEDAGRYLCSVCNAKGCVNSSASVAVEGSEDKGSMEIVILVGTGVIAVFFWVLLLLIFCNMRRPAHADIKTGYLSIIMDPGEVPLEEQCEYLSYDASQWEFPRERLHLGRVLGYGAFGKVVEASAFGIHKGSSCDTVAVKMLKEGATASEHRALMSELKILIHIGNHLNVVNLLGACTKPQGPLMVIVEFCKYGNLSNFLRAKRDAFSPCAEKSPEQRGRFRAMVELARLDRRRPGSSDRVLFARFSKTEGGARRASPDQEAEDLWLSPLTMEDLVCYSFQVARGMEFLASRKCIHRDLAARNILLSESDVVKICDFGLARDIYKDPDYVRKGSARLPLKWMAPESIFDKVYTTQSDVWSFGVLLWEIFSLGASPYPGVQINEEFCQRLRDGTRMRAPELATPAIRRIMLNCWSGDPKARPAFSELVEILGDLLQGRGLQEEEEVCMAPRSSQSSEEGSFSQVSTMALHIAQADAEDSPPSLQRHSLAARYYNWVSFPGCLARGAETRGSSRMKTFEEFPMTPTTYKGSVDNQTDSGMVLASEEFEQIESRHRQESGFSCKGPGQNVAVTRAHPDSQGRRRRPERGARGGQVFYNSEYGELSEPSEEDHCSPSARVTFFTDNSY
Chain of HER2 (P04626 23-1255, species assumed): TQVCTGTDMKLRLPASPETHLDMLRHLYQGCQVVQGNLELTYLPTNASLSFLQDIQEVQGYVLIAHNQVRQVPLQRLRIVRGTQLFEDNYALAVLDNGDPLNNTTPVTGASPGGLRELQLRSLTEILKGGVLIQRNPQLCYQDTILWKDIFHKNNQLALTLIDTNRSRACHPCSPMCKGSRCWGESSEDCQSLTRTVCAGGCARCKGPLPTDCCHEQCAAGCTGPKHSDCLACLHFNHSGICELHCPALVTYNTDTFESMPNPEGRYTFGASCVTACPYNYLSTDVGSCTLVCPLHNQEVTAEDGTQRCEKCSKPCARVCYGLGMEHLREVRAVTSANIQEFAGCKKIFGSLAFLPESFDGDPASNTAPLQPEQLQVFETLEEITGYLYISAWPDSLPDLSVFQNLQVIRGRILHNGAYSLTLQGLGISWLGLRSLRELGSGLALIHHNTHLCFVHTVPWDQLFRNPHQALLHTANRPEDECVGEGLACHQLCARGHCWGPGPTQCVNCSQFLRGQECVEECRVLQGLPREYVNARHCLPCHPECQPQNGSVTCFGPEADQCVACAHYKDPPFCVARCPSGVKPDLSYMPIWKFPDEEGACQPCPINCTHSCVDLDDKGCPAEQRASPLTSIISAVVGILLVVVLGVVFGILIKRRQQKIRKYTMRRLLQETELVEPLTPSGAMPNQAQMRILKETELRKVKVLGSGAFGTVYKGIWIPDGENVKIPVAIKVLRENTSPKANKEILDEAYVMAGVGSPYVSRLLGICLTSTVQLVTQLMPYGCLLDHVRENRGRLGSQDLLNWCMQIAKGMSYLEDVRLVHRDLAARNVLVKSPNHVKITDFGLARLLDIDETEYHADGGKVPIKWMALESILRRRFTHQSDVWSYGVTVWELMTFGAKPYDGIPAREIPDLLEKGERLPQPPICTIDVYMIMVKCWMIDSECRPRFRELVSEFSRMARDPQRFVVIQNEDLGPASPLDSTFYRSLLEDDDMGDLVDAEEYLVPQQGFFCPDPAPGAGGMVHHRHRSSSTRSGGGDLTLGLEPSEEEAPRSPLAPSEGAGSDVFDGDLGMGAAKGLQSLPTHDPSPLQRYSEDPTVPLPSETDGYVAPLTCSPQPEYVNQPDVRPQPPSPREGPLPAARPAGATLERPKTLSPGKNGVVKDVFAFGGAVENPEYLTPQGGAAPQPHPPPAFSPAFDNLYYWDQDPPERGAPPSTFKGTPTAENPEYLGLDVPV
Chain of KIT (P10721 26-976, species assumed): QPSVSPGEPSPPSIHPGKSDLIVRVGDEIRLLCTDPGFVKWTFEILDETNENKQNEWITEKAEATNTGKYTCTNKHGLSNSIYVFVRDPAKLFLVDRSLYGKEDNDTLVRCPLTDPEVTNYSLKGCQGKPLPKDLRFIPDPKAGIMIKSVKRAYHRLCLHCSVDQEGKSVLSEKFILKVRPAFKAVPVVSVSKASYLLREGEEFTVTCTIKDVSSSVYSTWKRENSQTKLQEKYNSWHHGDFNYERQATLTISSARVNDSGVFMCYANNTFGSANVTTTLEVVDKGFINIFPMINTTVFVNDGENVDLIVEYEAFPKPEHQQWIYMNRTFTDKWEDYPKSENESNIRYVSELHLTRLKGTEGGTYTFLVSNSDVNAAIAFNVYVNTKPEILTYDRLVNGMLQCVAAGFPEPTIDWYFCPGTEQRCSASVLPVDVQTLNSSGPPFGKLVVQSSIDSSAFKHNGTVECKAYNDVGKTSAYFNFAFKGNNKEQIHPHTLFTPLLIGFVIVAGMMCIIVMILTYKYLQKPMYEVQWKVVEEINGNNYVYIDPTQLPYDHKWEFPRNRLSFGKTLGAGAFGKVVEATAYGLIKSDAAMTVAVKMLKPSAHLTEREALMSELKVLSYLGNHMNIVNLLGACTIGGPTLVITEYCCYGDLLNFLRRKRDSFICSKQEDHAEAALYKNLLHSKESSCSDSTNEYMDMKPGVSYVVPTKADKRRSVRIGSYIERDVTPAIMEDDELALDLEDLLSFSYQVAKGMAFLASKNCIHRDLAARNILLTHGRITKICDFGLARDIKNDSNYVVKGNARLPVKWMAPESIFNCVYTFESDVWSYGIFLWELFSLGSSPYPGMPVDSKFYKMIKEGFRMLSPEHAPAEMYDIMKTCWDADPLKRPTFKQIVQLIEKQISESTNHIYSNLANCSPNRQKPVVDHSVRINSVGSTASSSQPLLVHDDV

Structure (SMILES)	inhibition at 10 µM (ABL) [%]	FGFR kinase inh. (FGFR)	inhibition at 10 µM (Flt-1) [%]	inhibition at 10 µM (Flt-4) [%]	inhibition at 10 µM (HER1) [%]	inhibition at 10 µM (HER2) [%]	inhibition at 10 µM (IGF) [%]	inhibition at 10 µM (KDR) [%]	inhibition at 10 µM (KIT) [%]	inhibition at 10 µM (MET) [%]	inhibition at 10 µM (PDK1) [%]	inhibition at 10 µM (PKB) [%]	inhibition at 10 µM (Raf-1) [%]	inhibition at 10 µM (Tek) [%]	pIC50 (human topoisomerase II α)	inhibition at 10 µM (human topoisomerase II α) [%]	PKA kinase inh. (PKA)
CC(C)(C)Nc1nc(Nc2ccc3ncsc3c2)nc2[nH]cnc12 [Example 14, N*2*-Benzothiazol-6-yl-N*6*-tert-butyl-9H-purine-2,6-diamine]	≥ 80	++ (<80% ≧ 65%)	65 to 80	≥ 80	65 to 80	65 to 80	≥ 80	≥ 80	≥ 80	≥ 80	≥ 80	50 to 65	65 to 80	≥ 80			
Cc1nc2c(NC(C)(C)C)nc(Nc3ccc4ncsc4c3)nc2[nH]1 [Example 25, N*2*-Benzothiazol-6-yl-N*6*-tert-butyl-8-methyl-9H-purine-2,6-diamine]	65 to 80		< 50	< 50	< 50	< 50	< 50	50 to 65	< 50	< 50	< 50	< 50	< 50	< 50	5.68	65 to 80	+ (<65% ≧ 50%)
CCc1nc2c(NC(C)(C)C)nc(Nc3ccc4ncsc4c3)nc2[nH]1 [Example 27, N*2*-Benzothiazol-6-yl-N*6*-tert-butyl-8-ethyl-9H-purine-2,6-diamine]	50 to 65		< 50	< 50	< 50	< 50	< 50	50 to 65	< 50	< 50	< 50	< 50	< 50	65 to 80	6.22	≥ 80	
